Results reported in patent US20100204129A1, “USE OF A PEPTIDE AS A THERAPEUTIC AGENT” (priority 2008, published 2010).

Legend:
HepG2-2.2.15 cells = details: peptide 10 micrograms per ml, dye uptake assay, % cell control
CEM-SS cells = test: Cytotoxicity in HIV-1 assay (MTS cell viability); details: CEM-SS cells, cells plus peptide only; peptide 10 micrograms per ml; MTS
HIV-1IIIB = test: HIV-1 antiviral assay (CPE reduction, MTS); format: cell-based; details: peptide 10 micrograms per ml, 6 days post-infection
HCMV strain AD169 = test: HCMV plaque reduction assay in MRC-5 cells; details: HCMV in MRC-5 cells; peptide 10 micrograms per ml; 7-10 days
MRC-5 cells = details: human, 6 days
Experimental: For cytotoxicity testing, MRC-5 cells were seeded at 2,500 cells/well in 96 well plates using growth medium. […] The following day, peptide was added and tested in duplicates. After a 6 days incubation period, cell viability was measured using CellTiter 96 Solution (Promega). Plates were incubated for additional 4 hours at 37° C. Adhesive plate sealers were used in place of lids, the sealed plates were inverted several times to mix the soluble formazan product and the plate was read spectrophotometrically at 490/560 nm with a Molecular Devices Vmax plate reader.

## Nc1ccn([C@@H]2CS[C@H](CO)O2)c(=O)n1 [3TC, Lamivudine, reference compound]
HepG2-2.2.15 cells
  % Cell viability: 95.8%

## Cc1cn([C@H]2C[C@H](N=[N+]=[N-])[C@@H](CO)O2)c(=O)[nH]c1=O [AZT, reference compound]
CEM-SS cells
  % Cell viability: 97%
HIV-1IIIB
  % CPE reduction in HIV-1 infected CEM-SS cells: 99%

## CC(C)(C)NC(=O)[C@@H]1CN(Cc2cccnc2)CCN1C[C@@H](O)C[C@@H](Cc1ccccc1)C(=O)N[C@H]1c2ccccc2C[C@H]1O [Indinavir, indinavir]
HIV-1IIIB
  % CPE reduction in HIV-1 infected CEM-SS cells: 100%

## Nc1nc(O)c2ncn(COC(CO)CO)c2n1 [Ganciclovir, reference compound]
HCMV strain AD169
  % plaque reduction: 100%
MRC-5 cells
  % Cell viability: 100%
